≈ marks a conversion by molar mass, not a printed value.
System: not listed separately
Test: Stability in human liver microsomes
Assay type: in vitro ADME
Details: not given
Description: (§1) Selected compounds were routinely screened for aqueous solubility in PBS (pH 7.4), transit performance in MDCK-MDR1 cell lines for permeability, and metabolic stability in MLM and HLM as a measure of clearance. The main metabolites and routes of metabolism of 4y were determined in MLM. Assay protocols and additional data are presented in the Supplementary Material (Tables S1–S7). ADME studies reported in this work were performed by WuXi AppTec (Shanghai, China).
(§2) Representative assay protocols have been described in detail. ^1,2

HLM Stability Cli [µL/min/mg protein]	SMILES
640	CC(=O)N1CCc2c(Cl)cccc21 [Compound 4g, 1-(4-Chloroindolin-1-yl)ethan-1-one]
900	CC(=O)N1CCc2c1cccc2C(F)(F)F [Compound 4o, 1-(4-(Trifluoromethyl)indolin-1-yl)ethan-1-one]

Same assay, conditions: human, read-out: HLM Stability t1/2

half-life [min]	SMILES
2.2	CC(=O)N1CCc2c(Cl)cccc21 [Compound 4g, 1-(4-Chloroindolin-1-yl)ethan-1-one]
1.5	CC(=O)N1CCc2c1cccc2C(F)(F)F [Compound 4o, 1-(4-(Trifluoromethyl)indolin-1-yl)ethan-1-one]

System: not listed separately
Test: Stability in mouse liver microsomes
Assay type: in vitro ADME
Details: not given
Description: as §1, §2

SMILES	MLM Stability Cli [µL/min/mg protein]
CC(=O)N1CC2(CC2)c2ccccc21 [Compound 4d, 1-(Spiro[cyclopropane-1,3′-indolin]-1′-yl)ethan-1-one]	360
CC(=O)N1CCc2c1ccc(Cl)c2C(F)(F)F [Compound 4v, 1-(5-Chloro-4-(trifluoromethyl)indolin-1-yl)ethan-1-one]	650

Next, values leading:

MLM Stability Cli [µL/min/mg protein]	SMILES
180	CC(=O)N1CCc2ccccc21 [Compound 3a, 1-(Indolin-1-yl)ethan-1-one]
670	CC(=O)N1CC2(CC2)c2c1cccc2C(F)(F)F [Compound 4aa, 1-(4'-(Trifluoromethyl)spiro[cyclopropane-1,3′-indolin]-1′-yl)ethan-1-one]

Same assay, conditions: Table 3, read-out: MLM Clint

SMILES	microsomal CLint at 1 h [µL/min/mg]
CC(=O)N1CCc2c1ccc(Cl)c2C(F)(F)F [Compound 4v, 1-(5-Chloro-4-(trifluoromethyl)indolin-1-yl)ethan-1-one]	650

Same assay, conditions: mouse, read-out: MLM Stability t1/2

SMILES	half-life [min]
CC(=O)N1CC2(CC2)c2ccccc21 [Compound 4d, 1-(Spiro[cyclopropane-1,3′-indolin]-1′-yl)ethan-1-one]	3.8
CC(=O)N1CCc2c1ccc(Cl)c2C(F)(F)F [Compound 4v, 1-(5-Chloro-4-(trifluoromethyl)indolin-1-yl)ethan-1-one]	2.1

Continued, values first:

half-life [min]	SMILES
8	CC(=O)N1CCc2ccccc21 [Compound 3a, 1-(Indolin-1-yl)ethan-1-one]
2	CC(=O)N1CC2(CC2)c2c1cccc2C(F)(F)F [Compound 4aa, 1-(4'-(Trifluoromethyl)spiro[cyclopropane-1,3′-indolin]-1′-yl)ethan-1-one]

System: not listed separately
Test: Aqueous solubility in PBS (pH 7.4)
Assay type: physicochemical
Details: PBS; Table S2; pH 7.4; n = 2; * below lower limit of quantification; read-out: Thermodynamic Solubility @ RT
Description: as §1, §2

SMILES	solubility thermodynamic [µg/mL]
CC(=O)N1CCc2c1ccc(Cl)c2C(F)(F)F [Compound 4v, 1-(5-Chloro-4-(trifluoromethyl)indolin-1-yl)ethan-1-one]	1.55 (≈ 5.88 µM)

Same assay, conditions: Table 3; PBS pH 7.4

SMILES	solubility [µg/mL]
CC(=O)N1CCc2c1ccc(Cl)c2C(F)(F)F [Compound 4v, 1-(5-Chloro-4-(trifluoromethyl)indolin-1-yl)ethan-1-one]	1.6 (≈ 6.07 µM)

Target: T1, Notum (core, 81–451C330S) (Homo sapiens, UniProt Q6P988, C330S)
T1 construct: high-throughput biochemical assay with Notum (81–451C330S) and OPTS as a synthetic fluorescent substrate; made in house
T1 sequence (Q6P988 81-451 C330S): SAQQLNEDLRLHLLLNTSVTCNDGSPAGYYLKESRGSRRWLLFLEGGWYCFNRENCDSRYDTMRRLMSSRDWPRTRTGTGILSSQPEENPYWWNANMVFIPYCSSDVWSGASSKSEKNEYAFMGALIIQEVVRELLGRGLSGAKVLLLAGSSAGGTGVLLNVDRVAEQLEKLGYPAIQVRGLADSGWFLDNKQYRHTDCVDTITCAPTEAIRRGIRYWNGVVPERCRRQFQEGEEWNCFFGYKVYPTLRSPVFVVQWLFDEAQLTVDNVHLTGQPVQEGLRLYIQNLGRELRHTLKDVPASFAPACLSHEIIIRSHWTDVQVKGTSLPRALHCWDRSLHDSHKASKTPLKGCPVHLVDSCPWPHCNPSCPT
Test: Notum-OPTS biochemical assay, Notum (81–451C330S)
Details: Notum (core, 81–451C330S); read-out: OPTS, IC50
Description: Notum inhibitors 3–5 (Table 1, Table 2, Table 3, Table 4) were either purchased or prepared using established synthetic methods from readily available starting materials (Scheme 1). Where necessary, the synthesis of many of these amines (e.g. 6) have been reported previously and full details of their preparation have been included in the Experimental Section. Notum inhibition activity was determined using the standard Notum-OPTS biochemical assay using IC50 values. These values were used to compare relative activities with covalent inhibitors under carefully regulated assay conditions. […] Selected inhibitors were screened for inhibition of Notum activity in a TCF/LEF Reporter (Luciferase) cell line with exogenous WNT3a and Notum, and soaked into Notum crystals to determine their binding modes and evidence of MoA.
(§3) Methods have been described in detail.

SMILES	IC50 [nM]
CC(=O)N1CCc2c1ccc(Cl)c2C(F)(F)F [Compound 4v, 1-(5-Chloro-4-(trifluoromethyl)indolin-1-yl)ethan-1-one]	1.3 ± 0.3

Same assay, conditions: Table 1; mean ± s.d. of n = 2–6; inactive = <20% inhibition @ 10 μM; >10 = 20–50% inhibition @ 10 μM; 2a covalent, IC50 time-dependant; read-out: Notum IC50

IC50 [nM]	SMILES
400 ± 110	CC(=O)N1CCc2ccccc21 [Compound 3a, 1-(Indolin-1-yl)ethan-1-one]

Same assay, conditions: Table 2; mean ± s.d. of n = 4–12; >10 = 20–50% inhibition @ 10 μM; read-out: Notum IC50

SMILES	IC50 [nM]
CC(=O)N1CC2(CC2)c2ccccc21 [Compound 4d, 1-(Spiro[cyclopropane-1,3′-indolin]-1′-yl)ethan-1-one]	61 ± 12
CC(=O)N1CCc2c(Cl)cccc21 [Compound 4g, 1-(4-Chloroindolin-1-yl)ethan-1-one]	40 ± 24
CC(=O)N1CCc2c1ccc(Cl)c2C(F)(F)F [Compound 4v, 1-(5-Chloro-4-(trifluoromethyl)indolin-1-yl)ethan-1-one]	1.3 ± 0.3

Continued, values first:

IC50 [nM]	SMILES
17 ± 2	CC(=O)N1CC2(CC2)c2c1cccc2C(F)(F)F [Compound 4aa, 1-(4'-(Trifluoromethyl)spiro[cyclopropane-1,3′-indolin]-1′-yl)ethan-1-one]
30 ± 4	CC(=O)N1CCc2c1cccc2C(F)(F)F [Compound 4o, 1-(4-(Trifluoromethyl)indolin-1-yl)ethan-1-one]

Same assay, conditions: ligand efficiency from Notum OPTS IC50

LE	SMILES
0.75	CC(=O)N1CCc2ccccc21 [Compound 3a, 1-(Indolin-1-yl)ethan-1-one]

Same assay, conditions: lipophilic ligand efficiency from Notum OPTS IC50 and clogP

LLE	SMILES
5.0	CC(=O)N1CCc2ccccc21 [Compound 3a, 1-(Indolin-1-yl)ethan-1-one]

Same assay, conditions: vs 2b

fold more potent than 2b (Notum IC50) [fold]	SMILES
7	CC(=O)N1CCc2ccccc21 [Compound 3a, 1-(Indolin-1-yl)ethan-1-one]

Same assay, conditions: vs 3a; more potent

fold increase in Notum inhibition over 3a [fold]	SMILES
10	CC(=O)N1CCc2c(Cl)cccc21 [Compound 4g, 1-(4-Chloroindolin-1-yl)ethan-1-one]

System: TCF/LEF Reporter (Luciferase) cell line
Test: TCF/LEF reporter (Luciferase) assay with WNT3A in the absence of Notum
Assay type: cell-based
Details: up to 10 μM
Description: Early leads 4v, 4w and 4y were then evaluated in additional pharmacology and ADME screens (Table 3). […] Screening 4w and 4y in the biochemical assay using full length Notum and OPTS confirmed potent inhibition of Notum activity.
Figure S4D. Notum TCF/LEF reporter (Luciferase) data with WNT3A (200 ng/mL) in the absence of Notum. Representative response-concentration curves are for 4w (2 of 6 shown) from a larger data set for compounds 3-5. Examples are from different screening runs.

SMILES	assay interference or cell toxicity in the absence of Notum
CC(=O)N1CCc2c1ccc(Cl)c2C(F)(F)F [Compound 4v, 1-(5-Chloro-4-(trifluoromethyl)indolin-1-yl)ethan-1-one]	not by assay interference or cell toxicity

Target: T2, Notum (Homo sapiens, UniProt Q6P988)
T2 construct: host or cells: TCF/LEF Reporter (Luciferase) cell line; Notum added exogenously
T2 sequence (Q6P988 20-496): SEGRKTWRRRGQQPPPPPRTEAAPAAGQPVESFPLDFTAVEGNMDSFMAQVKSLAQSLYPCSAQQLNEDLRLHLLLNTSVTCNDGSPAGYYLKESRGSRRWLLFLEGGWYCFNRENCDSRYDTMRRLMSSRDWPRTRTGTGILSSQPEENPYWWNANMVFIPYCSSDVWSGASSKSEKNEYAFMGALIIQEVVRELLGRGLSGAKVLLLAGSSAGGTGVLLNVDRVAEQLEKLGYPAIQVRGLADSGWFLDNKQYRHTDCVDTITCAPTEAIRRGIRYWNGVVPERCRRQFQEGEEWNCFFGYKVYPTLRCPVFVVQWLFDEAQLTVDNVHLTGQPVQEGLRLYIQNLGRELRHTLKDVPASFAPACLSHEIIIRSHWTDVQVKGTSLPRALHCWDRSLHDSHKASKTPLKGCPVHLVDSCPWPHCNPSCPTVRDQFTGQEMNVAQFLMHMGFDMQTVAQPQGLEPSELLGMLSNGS
Test: TCF/LEF Reporter (Luciferase) cell line with exogenous WNT3a and Notum
Assay type: cell-based
Details: Notum (core, 81–451C330S); restoration of Wnt signalling; read-out: TCF-LEF, EC50
Description: Notum inhibitors 3–5 (Table 1, Table 2, Table 3, Table 4) were either purchased or prepared using established synthetic methods from readily available starting materials (Scheme 1). Where necessary, the synthesis of many of these amines (e.g. 6) have been reported previously and full details of their preparation have been included in the Experimental Section. Notum inhibition activity was determined using the standard Notum-OPTS biochemical assay using IC50 values. These values were used to compare relative activities with covalent inhibitors under carefully regulated assay conditions. Confirmed inhibitors were routinely screened in in vitro ADME assays. Selected inhibitors were screened for inhibition of Notum activity in a TCF/LEF Reporter (Luciferase) cell line with exogenous WNT3a and Notum, and soaked into Notum crystals to determine their binding modes and evidence of MoA. […]
as §3

SMILES	EC50 [nM]
CC(=O)N1CCc2c1ccc(Cl)c2C(F)(F)F [Compound 4v, 1-(5-Chloro-4-(trifluoromethyl)indolin-1-yl)ethan-1-one]	28 ± 20

Same assay, conditions: concentration-response curves up to 10 μM

SMILES	restoration of Wnt signalling in the presence of Notum
CC(=O)N1CCc2c1ccc(Cl)c2C(F)(F)F [Compound 4v, 1-(5-Chloro-4-(trifluoromethyl)indolin-1-yl)ethan-1-one]	restored Wnt signalling

Reference: paper PMC10626578, “Designed switch from covalent to non-covalent inhibitors of carboxylesterase Notum activity” (European Journal of Medicinal Chemistry, 2023)
